Measurements from patent US8791148B2, “Substituted benzimidazolone derivatives, medicaments comprising them and their use” (AbbVie Deutschland GmbH & Co. KG, priority 2006, dated 2014).

What follows are molecules tested against T1, human vasopressin V1b receptor (Homo sapiens, UniProt P47901) (assay: Vasopressin V1b receptor binding assay). Settings: membranes from CHO-K1 cells with stably expressed human V1b receptors; displacement of 1.5 nM 3H-AVP; read-out: V1b receptor affinity (affinity constant Ki).
T1 construct: expressed in transfected cells; host or cells: CHO-K1 (cell line hV1b-3H2_CHO), membrane preparation
T1 sequence (P47901 1-424): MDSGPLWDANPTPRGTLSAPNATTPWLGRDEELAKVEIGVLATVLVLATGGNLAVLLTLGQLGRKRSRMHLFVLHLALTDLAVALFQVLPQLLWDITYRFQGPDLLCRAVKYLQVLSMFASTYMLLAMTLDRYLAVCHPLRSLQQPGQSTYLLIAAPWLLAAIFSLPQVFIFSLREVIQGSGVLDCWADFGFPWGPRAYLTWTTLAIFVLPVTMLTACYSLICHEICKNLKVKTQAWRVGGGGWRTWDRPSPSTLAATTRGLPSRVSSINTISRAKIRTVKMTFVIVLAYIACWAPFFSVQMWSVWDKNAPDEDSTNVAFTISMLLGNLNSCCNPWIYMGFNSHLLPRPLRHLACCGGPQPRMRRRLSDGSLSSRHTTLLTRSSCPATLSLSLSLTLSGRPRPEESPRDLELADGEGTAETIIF
Summary of the method: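 Ki values come from nonlinear regression of triplicate scintillation counts after filtration. Test compound (2% DMSO in the mixture) and radioligand were incubated 60 min at room temperature with human V1b membranes in pH 7.4 Tris buffer with 10 mM MgCl2 and 0.1% BSA. Nonspecific binding was set with 1 uM AVP.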

| SMILES | Ki |
| --- | --- |
| CCCN1CCN([C@@H]2CCN(C(=O)C(c3ccccc3)n3c(=O)n(S(=O)(=O)c4ccc(OC)cc4)c4ccc(C#N)cc43)C2)CC1 (stereo partly drawn) [Example 163, 1-(4-Methoxybenzenesulfonyl)-2-oxo-3-{2-oxo-1-phenyl-2-[(R)-3-(4-propylpiperazin-1-yl)pyrrolidin-1-yl]ethyl}-2,3-dihydro-1H-benzimidazole-5-carbonitrile] | 100 to 500 nM |
| COc1ccc(S(=O)(=O)n2c(=O)n(C(C(=O)N3CCN(C4CCCNC4)CC3)c3ccccc3)c3cc(Cl)ccc32)cc1 (stereo not drawn) [Example 165, 5-Chloro-1-(4-methoxybenzenesulfonyl)-3-[2-oxo-1-phenyl-2-(4-piperidin-3-ylpiperazin-1-yl)ethyl]-1,3-dihydrobenzimidazol-2-one] | 500 to 10000 nM |
| COc1ccc(S(=O)(=O)n2c(=O)n(C(C(=O)N3CCC(N)C3)c3ccccc3)c3cc(Cl)ccc32)cc1 (stereo not drawn) [Example 166, 3-[2-(3-Aminopyrrolidin-1-yl)-2-oxo-1-phenylethyl]-5-chloro-1-(4-methoxybenzenesulfonyl)-1,3-dihydrobenzimidazol-2-one] | 100 to 500 nM |
| COc1ccc(S(=O)(=O)n2c(=O)n(C(C(=O)N3CC[C@H](N)C3)c3ccccc3)c3cc(Cl)ccc32)cc1 (stereo partly drawn) [Example 168, 3-[2-((S)-3-Aminopyrrolidin-1-yl)-2-oxo-1-phenylethyl]-5-chloro-1-(4-methoxybenzenesulfonyl)-1,3-dihydrobenzimidazol-2-one] | 100 to 500 nM |
| COc1ccc(S(=O)(=O)n2c(=O)n(C(C(=O)N3CC[C@@H](N)C3)c3ccccc3)c3cc(Cl)ccc32)cc1 (stereo partly drawn) [Example 169, 3-[2-((R)-3-Aminopyrrolidin-1-yl)-2-oxo-1-phenylethyl]-5-chloro-1-(4-methoxybenzenesulfonyl)-1,3-dihydrobenzimidazol-2-one] | 500 to 10000 nM |
| COc1ccc(S(=O)(=O)n2c(=O)n(C(C(=O)N3CCCC(N)C3)c3ccccc3)c3cc(C#N)ccc32)cc1 (stereo not drawn) [Example 170, 3-[2-(3-Aminopiperidin-1-yl)-2-oxo-1-phenylethyl]-1-(4-methoxybenzenesulfonyl)-2-oxo-2,3-dihydro-1H-benzimidazole-5-carbonitrile] | 500 to 10000 nM |
| COc1ccc(S(=O)(=O)n2c(=O)n(C(C(=O)N3CC[C@H](N)C3)c3ccccc3)c3cc(C#N)ccc32)cc1 (stereo partly drawn) [Example 171, 3-[2-((S)-3-Aminopyrrolidin-1-yl)-2-oxo-1-phenylethyl]-1-(4-methoxybenzenesulfonyl)-2-oxo-2,3-dihydro-1H-benzimidazole-5-carbonitrile] | 500 to 10000 nM |
| COc1ccc(S(=O)(=O)n2c(=O)n(C(C(=O)N3CC[C@@H](N)C3)c3ccccc3)c3cc(C#N)ccc32)cc1 (stereo partly drawn) [Example 172, 3-[2-((R)-3-Aminopyrrolidin-1-yl)-2-oxo-1-phenylethyl]-1-(4-methoxybenzenesulfonyl)-2-oxo-2,3-dihydro-1H-benzimidazole-5-carbonitrile] | 500 to 10000 nM |
| COc1ccc(S(=O)(=O)n2c(=O)n(C(C(=O)N[C@H]3CCNC3)c3ccccc3)c3cc(Cl)ccc32)cc1 (stereo partly drawn) [Example 173, 2-[6-Chloro-3-(4-methoxybenzenesulfonyl)-2-oxo-2,3-dihydrobenzimidazol-1-yl]-2-phenyl-N—(S)-pyrrolidin-3-ylacetamide] | 500 to 10000 nM |
| COc1ccc(S(=O)(=O)n2c(=O)n(C(C(=O)N[C@@H]3CCNC3)c3ccccc3)c3cc(Cl)ccc32)cc1 (stereo partly drawn) [Example 174, 2-[6-Chloro-3-(4-methoxybenzenesulfonyl)-2-oxo-2,3-dihydrobenzimidazol-1-yl]-2-phenyl-N—(R)-pyrrolidin-3-ylacetamide] | 500 to 10000 nM |
| CCCN1CCN([C@H]2CCN(C(=O)C(c3ccccc3)n3c(=O)n(S(=O)(=O)c4cccc5cccnc45)c4ccc(C#N)cc43)C2)CC1 (stereo partly drawn) [Example 200, 2-oxo-3-{2-oxo-1-phenyl-2-[(S)-3-(4-propylpiperazin-1-yl)pyrrolidin-1-yl]-ethyl}-1-(quinoline-8-sulfonyl)-2,3-dihydro-1H-benzimidazole-5-carbonitrile] | 500 to 10000 nM |
| CCCN1CCN([C@H]2CCN(C(=O)C(c3ccccc3)n3c(=O)n(S(=O)(=O)c4cccs4)c4ccc(C#N)cc43)C2)CC1 (stereo partly drawn) [Example 201, 2-oxo-3-{2-oxo-1-phenyl-2-[(S)-3-(4-propylpiperazin-1-yl)pyrrolidin-1-yl]-ethyl}-1-(thiophene-2-sulfonyl)-2,3-dihydro-1H-benzimidazole-5-carbonitrile] | 100 to 500 nM |
| CCCN1CCN([C@H]2CCN(C(=O)C(c3ccccc3)n3c(=O)n(S(=O)(=O)c4ccccc4)c4ccc(C#N)cc43)C2)CC1 (stereo partly drawn) [Example 202, 1-Benzenesulfonyl-2-oxo-3-{2-oxo-1-phenyl-2-[(S)-3-(4-propylpiperazin-1-yl)-pyrrolidin-1-yl]ethyl}-2,3-dihydro-1H-benzimidazole-5-carbonitrile] | 100 to 500 nM |
| CCCN1CCN([C@H]2CCN(C(=O)C(c3ccccc3)n3c(=O)n(S(=O)(=O)c4ccc(C)cn4)c4ccc(C#N)cc43)C2)CC1 (stereo partly drawn) [Example 204, 1-(5-Methylpyridine-2-sulfonyl)-2-oxo-3-{2-oxo-1-phenyl-2-[(S)-3-(4-propylpiperazin-1-yl)pyrrolidin-1-yl]ethyl}-2,3-dihydro-1H-benzimidazole-5-carbonitrile] | 100 to 500 nM |

Results, then the molecule that gave them:

| Ki | SMILES |
| --- | --- |
| < 100 nM | COc1ccc(S(=O)(=O)n2c(=O)n(C(C(=O)N3CCCC(N)C3)c3ccccc3)c3cc(Cl)ccc32)cc1 (stereo not drawn) [Example 167, 3-[2-(3-Aminopiperidin-1-yl)-2-oxo-1-phenylethyl]-5-chloro-1-(4-methoxybenzenesulfonyl)-1,3-dihydrobenzimidazol-2-one] |
| < 100 nM | COc1ccc(S(=O)(=O)n2c(=O)n(C(C(=O)N3CCC(NC4CCNCC4)C3)c3ccccc3)c3cc(Cl)ccc32)cc1 (stereo not drawn) [Example 175, 5-Chloro-1-(4-methoxybenzenesulfonyl)-3-{2-oxo-1-phenyl-2-[3-(piperidin-4-ylamino)pyrrolidin-1-yl]ethyl}-1,3-dihydrobenzimidazol-2-one] |
| < 100 nM | COc1ccc(S(=O)(=O)n2c(=O)n(C(C(=O)N3CC[C@@H](NC4CCNCC4)C3)c3ccccc3)c3cc(Cl)ccc32)cc1 (stereo partly drawn) [Example 176, 5-Chloro-1-(4-methoxybenzenesulfonyl)-3-{2-oxo-1-phenyl-2-[(R)-3-(piperidin-4-ylamino)pyrrolidin-1-yl]ethyl}-1,3-dihydrobenzimidazol-2-one] |
| < 100 nM | COc1ccc(S(=O)(=O)n2c(=O)n(C(C(=O)N3CC[C@H](NC4CCNCC4)C3)c3ccccc3)c3cc(Cl)ccc32)cc1 (stereo partly drawn) [Example 177, 5-Chloro-1-(4-methoxybenzenesulfonyl)-3-{2-oxo-1-phenyl-2-[(S)-3-(piperidin-4-ylamino)pyrrolidin-1-yl]ethyl}-1,3-dihydrobenzimidazol-2-one] |
| < 100 nM | COc1ccc(S(=O)(=O)n2c(=O)n(C(C(=O)N3CC[C@H](N4CCN(C(C)C)CC4)C3)c3ccccc3)c3cc(C#N)ccc32)cc1 (stereo partly drawn) [Example 189, 3-{2-[(S)-3-(4-Isopropylpiperazin-1-yl)pyrrolidin-1-yl]-2-oxo-1-phenylethyl}-1-(4-methoxybenzenesulfonyl)-2-oxo-2,3-dihydro-1H-benzimidazole-5-carbonitrile] |
| < 100 nM | CCCN1CCN([C@H]2CCCN(C(=O)C(c3ccccc3)n3c(=O)n(S(=O)(=O)c4ccc(OC)cc4)c4ccc(C#N)cc43)C2)CC1 (stereo partly drawn) [Example 191, 1-(4-Methoxybenzenesulfonyl)-2-oxo-3-{2-oxo-1-phenyl-2-[(S)-3-(4-propylpiperazin-1-yl)piperidin-1-yl]ethyl}-2,3-dihydro-1H-benzimidazole-5-carbonitrile] |
| < 100 nM | COc1ccc(S(=O)(=O)n2c(=O)n(C(C(=O)N3CCC[C@H](N4CCN(C)CC4)C3)c3ccccc3)c3cc(C#N)ccc32)cc1 (stereo partly drawn) [Example 193, 1-(4-Methoxybenzenesulfonyl)-3-{2-[(S)-3-(4-methylpiperazin-1-yl)piperidin-1-yl]-2-oxo-1-phenylethyl}-2-oxo-2,3-dihydro-1H-benzimidazole-5-carbonitrile] |
| < 100 nM | COc1ccc(S(=O)(=O)n2c(=O)n(C(C(=O)N3CCC[C@H](N4CCNCC4)C3)c3ccccc3)c3cc(C#N)ccc32)cc1 (stereo partly drawn) [Example 195, 1-(4-Methoxybenzenesulfonyl)-2-oxo-3-[2-oxo-1-phenyl-2-((S)-3-piperazin-1-ylpiperidin-1-yl)ethyl]-2,3-dihydro-1H-benzimidazole-5-carbonitrile] |
| < 100 nM | CCCN1CCN([C@H]2CCN(C(=O)C(c3ccccc3)n3c(=O)n(S(=O)(=O)c4ccc(OC)cc4OC)c4ccc(C#N)cc43)C2)CC1 (stereo partly drawn) [Example 199, 1-(2,4-Dimethoxybenzenesulfonyl)-2-oxo-3-{2-oxo-1-phenyl-2-[(S)-3-(4-propylpiperazin-1-yl)pyrrolidin-1-yl]ethyl}-2,3-dihydro-1H-benzimidazole-5-carbonitrile] |
| < 100 nM | CCCN1CCN([C@H]2CCN(C(=O)C(c3ccccc3)n3c(=O)n(S(=O)(=O)c4ccsc4)c4ccc(C#N)cc43)C2)CC1 (stereo partly drawn) [Example 203, 2-oxo-3-{2-oxo-1-phenyl-2-[(S)-3-(4-propylpiperazin-1-yl)pyrrolidin-1-yl]-ethyl}-1-(thiophene-3-sulfonyl)-2,3-dihydro-1H-benzimidazole-5-carbonitrile] |
